Measured values from publication PMC10535864, “Novel Aminopyrimidine-2,4-diones, 2-Thiopyrimidine-4-ones, and 6-Arylpteridines as Dual-Target Inhibitors of BRD4/PLK1: Design, Synthesis, Cytotoxicity, and Computational Studies” (Pharmaceuticals, 2023).

Key:
[1] = system: MDA-MB-231 breast cancer cells; assay: MTT cytotoxicity assay, MDA-MB-231; type: cell-based; conditions: MDA-MB-231, MTT; for IC50 / viability at 0.312 µM / viability at 0.625 µM / viability at 1.25 µM / viability at 2.5 µM / viability at 5 µM / viability at 10 µM: Homo sapiens; for IC50: mean of three independent experiments ± SD, read-out: IC50 Value MDA-MB-231
Protocol: (§1) All newly synthetic compounds were tested for cytotoxicity using a six-dose MTT colorimetric assay on three cancer cell lines; namely, breast cancer cells (MDA-MB-231), colorectal adenocarcinoma cells (HT-29) and renal cancer cells (U-937). […] However, renal cancer cells (U-937) were discovered to be the least sensitive.
(§2) Using a six-dose MTT colorimetric assay, all new synthetic compounds were tested for cytotoxicity against three cancer cell lines: MDA-MB-231 breast cancer cells, HT-29 colorectal adenocarcinoma cells, and U-937 renal cancer cells. […] These cell lines were supplied by ATCC (American Type Culture Collection) via the Holding company for biological products and vaccines (VACSERA, Cairo, Egypt). The reference control used was Methotrexate. Detailed descriptions of the MTT colorimetric assay’s protocol can be found in the Supplementary file.
(§3) 1.1.In-vitro cytotoxicity screening
(§4) Using a six-dose MTT colorimetric assay, allnew synthetic compounds were tested for cytotoxicity against three cancer cell lines: MDA-MB-231 breast cancer cells,HT-29 colorectal adenocarcinoma cells, and U-937 renal […]
(§5) The cell lines were supplied by ATCC (American Type Culture Collection). The reference control used was Methotrexate. The cytotoxic activities of the examined compounds were quantified by inoculating a 96-well tissue culture plate with 1 X 10^5 cells / mL (100 uL/well) and incubating it at 37°C for 24 hours to develop a complete monolayer sheet. After forming a confluent sheet of cells, the growth medium was decanted from 96-well microtiter plates, and the cell monolayer was washed twice with wash media. Two-fold dilutions of tested samples were made in RPMI medium with 2% serum (maintenance medium), and 0.1 mL of each dilution was tested in different wells, with three wells serving as controls and receiving only maintenance medium. Following that, the plate was incubated at 37°C and examined. Cells were investigated for any physical signs of toxicity, such as partial or complete monolayer loss, rounding, shrinkage, or cell granulation. MTT solution was prepared (5mg/ml in PBS) (BIO BASIC CANADA INC), and 20 uL MTT solution was added to each well. After 5 minutes on a shaking table at150 rpm to thoroughly mix the MTT into the media, it was incubated (37°C, 5% CO2) for 4 hours to allow the MTT to be metabolized. Formazan (MTT metabolic product) was resuspended in 200 uL DMSO and shaken at 150 rpm for 5 minutes to thoroughly mix the formazan into the solvent. The optical density was measured at 560 nm, and the background was subtracted at 620 nm. Finally, the IC50 of the test compound in comparison to the reference was calculated using the GraphPad Prism software. […]

[2] = molecular target: T1, BRD4 (BD2) (Homo sapiens, UniProt O60885); assay: BRD4 inhibitory activity assay (AlphaLISA Bromodomain Assay); type: binding; conditions: mean of three independent experiments; read-out: BRD4 IC50 ± SD;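 also: in vitro inhibition of recombinant BRD4 BD2 bromodomain binding to a BET bromodomain ligand, read by AlphaLISA proximity signal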
T1 construct: BRD4 (BD2) should be thawed on ice; purchased

[3] = system: U-937 renal cancer cells; assay: MTT cytotoxicity assay, U-937; type: cell-based; conditions: MTT; for IC50: Homo sapiens, U-937, mean of three independent experiments ± SD, read-out: IC50 Value U-937; for Toxicity %: U937;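 as to all read-outs here: Six-dose MTT colorimetric assay on cell monolayers, formazan absorbance read at 560 nm with 620 nm background removed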
[4] = MTT cytotoxicity assay, U-937; type: cell-based; conditions: Homo sapiens, U-937, U937, MTT;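 also: Six-dose MTT colorimetric assay on cell monolayers, formazan absorbance read at 560 nm with 620 nm background removed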
[5] = molecular target: human recombinant PLK1 (Homo sapiens, UniProt P53350); assay: PLK1 inhibitory activity assay (ADP-Glo Kinase Assay); type: biochemical; conditions: mean of three independent experiments; read-out: PLK1 IC50 ± SD
Protocol: The BRD4 and PLK1 inhibitory assays were carried out in vitro in accordance with the manufacturer’s instructions; BRD4 was assessed using AlphaLISA Bromodomain Assay Protocol, and PLK1 kinase was tested using the ADP-Glo™ Kinase Assay Protocol, as detailed in the Supplementary file. […]
1.2.2. PLK1 inhibitory activity assay
The kinase reaction was performed with active human recombinant PLK1 and combined with the substrate dephosphorylated casein (positive control) using 1 X reaction buffer (40 mM Tris-HCl pH 7.4, 20 mM MgCl2, 0.1 mg/mL BSA, 1 mM DTT) and 20 μM ATP. The reaction was incubated at30°C for 45 minutes. The amount of ATP transferred was calculated using […] reagent from Promega according to the manufacturer’s instruction.
A plate-reading luminometer isused to measure the luminescence. […]

[6] = system: HT-29 colorectal adenocarcinoma cells; assay: MTT cytotoxicity assay, HT-29; type: cell-based; conditions: MTT; for Toxicity % / viability at 0.312 µM / viability at 0.625 µM / viability at 1.25 µM / viability at 2.5 µM / viability at 5 µM / viability at 10 µM: HT29; for viability at 0.312 µM / viability at 0.625 µM / viability at 1.25 µM / viability at 2.5 µM / viability at 5 µM / viability at 10 µM / IC50: Homo sapiens, HT-29; for IC50: mean of three independent experiments ± SD, read-out: IC50 Value HT-29
Protocol: as §1, §2, §3, §4, §5

human recombinant PLK1, sequence (P53350 whole entry): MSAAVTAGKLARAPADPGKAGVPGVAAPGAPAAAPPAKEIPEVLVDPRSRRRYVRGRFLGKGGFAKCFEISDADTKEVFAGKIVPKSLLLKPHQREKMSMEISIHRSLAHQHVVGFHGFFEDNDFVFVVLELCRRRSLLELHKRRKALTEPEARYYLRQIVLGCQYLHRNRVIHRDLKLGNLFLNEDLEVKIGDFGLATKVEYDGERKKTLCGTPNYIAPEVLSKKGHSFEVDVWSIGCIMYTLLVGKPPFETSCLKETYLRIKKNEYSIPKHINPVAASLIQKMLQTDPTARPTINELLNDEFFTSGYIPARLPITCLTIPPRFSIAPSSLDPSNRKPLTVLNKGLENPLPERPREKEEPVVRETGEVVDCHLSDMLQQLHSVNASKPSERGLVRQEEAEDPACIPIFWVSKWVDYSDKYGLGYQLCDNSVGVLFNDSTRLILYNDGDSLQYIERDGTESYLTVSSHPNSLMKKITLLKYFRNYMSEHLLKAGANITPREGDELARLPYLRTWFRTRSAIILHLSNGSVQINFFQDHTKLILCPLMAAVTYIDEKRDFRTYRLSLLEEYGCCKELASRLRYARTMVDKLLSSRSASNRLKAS

COc1ccc(-c2cnc3c(n2)c(=O)[nH]c(=O)n3Cc2ccccc2)cc1 [Compound 9, 1-Benzyl-6-(4-methoxyphenyl)pteridine-2,4(1H,3H)-dione]
IC50 [1]: 2.07 ± 0.03 µM
viability at 0.312 µM ([1]; 0.312 uM): 99.7%
viability at 0.625 µM ([1]; 0.625 uM): 99.2%
viability at 1.25 µM ([1]; 1.25 uM): 86.2%
viability at 2.5 µM ([1]; 2.5 uM): 33%
viability at 5 µM ([1]; 5 uM): 13.5%
viability at 10 µM ([1]; 10 uM): 5.45%
Toxicity % ([1]; 0.312 uM): 0.266%
Toxicity % ([1]; 0.625 uM): 0.7979%
Toxicity % ([1]; 1.25 uM): 13.79%
Toxicity % ([1]; 2.5 uM): 66.98%
Toxicity % ([1]; 5 uM): 86.48%
Toxicity % ([1]; 10 uM): 94.55%
IC50 [2]: 0.179 ± 0.008 µM
IC50 [3]: 4.42 ± 0.18 µM
Toxicity % ([3]; 0.312 uM): 0.2179%
Toxicity % ([3]; 0.625 uM): 0%
Toxicity % ([3]; 1.25 uM): 1.416%
Toxicity % ([3]; 2.5 uM): 23.04%
Toxicity % ([3]; 5 uM): 58.01%
Toxicity % ([3]; 10 uM): 80.66%
viability at 0.312 µM [4]: 99.8%
viability at 0.625 µM [4]: 100%
viability at 1.25 µM [4]: 98.6%
viability at 2.5 µM [4]: 77%
viability at 5 µM [4]: 42%
viability at 10 µM [4]: 19.3%
IC50 [5]: 0.041 ± 0.001 µM
Toxicity % ([6]; 0.312 uM): 0.2584%
Toxicity % ([6]; 0.625 uM): 0.08613%
Toxicity % ([6]; 1.25 uM): 0.08613%
Toxicity % ([6]; 2.5 uM): 12.36%
Toxicity % ([6]; 5 uM): 68.22%
Toxicity % ([6]; 10 uM): 88.67%
viability at 0.312 µM ([6]; 0.312 uM): 99.7%
viability at 0.625 µM ([6]; 0.625 uM): 99.9%
viability at 1.25 µM ([6]; 1.25 uM): 99.9%
viability at 2.5 µM ([6]; 2.5 uM): 87.6%
viability at 5 µM ([6]; 5 uM): 31.8%
viability at 10 µM ([6]; 10 uM): 11.3%
IC50 [6]: 4.11 ± 0.05 µM
melting point: > 300 °C

Cn1c(=S)[nH]c(=O)c2nc(-c3ccccc3)c(-c3ccccc3)nc21 [Compound 10, 1-Methyl-6,7-diphenyl-2-thioxo-2,3-dihydropteridin-4(1H)-one]
IC50 [1]: 3.4 ± 0.02 µM
viability at 0.312 µM ([1]; 0.312 uM): 100%
viability at 0.625 µM ([1]; 0.625 uM): 100%
viability at 1.25 µM ([1]; 1.25 uM): 98.8%
viability at 2.5 µM ([1]; 2.5 uM): 54.3%
viability at 5 µM ([1]; 5 uM): 26.3%
viability at 10 µM ([1]; 10 uM): 7.93%
Toxicity % ([1]; 0.312 uM): 0%
Toxicity % ([1]; 0.625 uM): 0%
Toxicity % ([1]; 1.25 uM): 1.197%
Toxicity % ([1]; 2.5 uM): 45.66%
Toxicity % ([1]; 5 uM): 73.67%
Toxicity % ([1]; 10 uM): 92.07%
IC50 [3]: 8.37 ± 0.23 µM
Toxicity % ([3]; 0.312 uM): 0.5447%
Toxicity % ([3]; 0.625 uM): 0.1634%
Toxicity % ([3]; 1.25 uM): 0.05447%
Toxicity % ([3]; 2.5 uM): 4.248%
Toxicity % ([3]; 5 uM): 15.03%
Toxicity % ([3]; 10 uM): 65.14%
viability at 0.312 µM [4]: 99.5%
viability at 0.625 µM [4]: 99.8%
viability at 1.25 µM [4]: 99.9%
viability at 2.5 µM [4]: 95.8%
viability at 5 µM [4]: 85%
viability at 10 µM [4]: 34.9%
Toxicity % ([6]; 0.312 uM): 0%
Toxicity % ([6]; 0.625 uM): 0%
Toxicity % ([6]; 1.25 uM): 2.239%
Toxicity % ([6]; 2.5 uM): 18.99%
Toxicity % ([6]; 5 uM): 41.09%
Toxicity % ([6]; 10 uM): 96.3%
viability at 0.312 µM ([6]; 0.312 uM): 100%
viability at 0.625 µM ([6]; 0.625 uM): 100%
viability at 1.25 µM ([6]; 1.25 uM): 97.8%
viability at 2.5 µM ([6]; 2.5 uM): 81%
viability at 5 µM ([6]; 5 uM): 58.9%
viability at 10 µM ([6]; 10 uM): 3.7%
IC50 [6]: 5.63 ± 0.13 µM
melting point: 287 °C
